4 compounds from patent US20250134109A1, “Antimicrobial, Antiviral and Antifungal Articles and Methods of Producing Such Articles” (Cupron, Inc., priority 2021, published 2025) can be followed below.

This data set is described as follows: Copper ion release from 1.0μ particles of various copper compounds over exposure cycles. Type of data set: physicochemical. The text has this: In many embodiments, it is possible to provide ion release rates that are tailored to the specific application. For example, embodiments include articles that comprise first particles having a first ion release rate and second particles having a second ion release rate.
The ion release rates listed may be considered to be an average ion release rate of a plurality of particles or powder having an average particle size of 1 micron also. […]

Consider `O=S(=O)([O-])[O-].[Cu+2]` [CuSO4, copper sulfate], for which, for the setting “as shown in Table 1”, the “number of exposures in which copper ions are released into a fluid” value is “less than five exposures”. Besides, the “Copper ion release from 1.0μ particles” value is 100.0 ppm (exposure cycle 0); 0.0 ppm (exposure cycle 5); 0.0 ppm (exposure cycle 10); 0.0 ppm (exposure cycle 15); 0.0 ppm (exposure cycle 20); 0.0 ppm (exposure cycle 25). Moreover, the “Copper ion release from 1.0μ particles” value turned out to be 0.0 ppm (exposure cycle 30); 0.0 ppm (exposure cycle 35); 0.0 ppm (exposure cycle 40); 0.0 ppm (exposure cycle 45); 0.0 ppm (exposure cycle 50).

Consider `[Cu+].[I-]` [Cul, cuprous iodide], for which the “Copper ion release from 1.0μ particles” value is reported as 6.0 ppm (exposure cycle 0); 3.0 ppm (exposure cycle 5); 1.5 ppm (exposure cycle 10); 0.7 ppm (exposure cycle 15); 0.4 ppm (exposure cycle 20); 0.2 ppm (exposure cycle 25). Besides, the “Copper ion release from 1.0μ particles” value reads like this: (exposure cycle 30) 0.1 ppm; (exposure cycle 35) 0.0 ppm; (exposure cycle 40) 0.0 ppm; (exposure cycle 45) 0.0 ppm; (exposure cycle 50) 0.0 ppm.

Take copper sulfide [Cu2S]: the “Copper ion release from 1.0μ particles” value came out at 0.5 ppm (exposure cycle 0); 0.5 ppm (exposure cycle 5); 0.5 ppm (exposure cycle 10); 0.5 ppm (exposure cycle 15); 0.5 ppm (exposure cycle 20); 0.5 ppm (exposure cycle 25). The “Copper ion release from 1.0μ particles” value is listed as 0.5 ppm (exposure cycle 30); 0.5 ppm (exposure cycle 35); 0.5 ppm (exposure cycle 40); 0.5 ppm (exposure cycle 45); 0.5 ppm (exposure cycle 50).

Consider cuprous thiocyanate [CuSCN], for which the “Copper ion release from 1.0μ particles” value (exposure cycle 0) worked out at 4.0 ppm; the “Copper ion release from 1.0μ particles” value (exposure cycle 5) amounted to 2.7 ppm; the “Copper ion release from 1.0μ particles” value (exposure cycle 10) was 1.8 ppm; the “Copper ion release from 1.0μ particles” value (exposure cycle 15) is 1.3 ppm; the “Copper ion release from 1.0μ particles” value (exposure cycle 20) amounted to 0.9 ppm; the “Copper ion release from 1.0μ particles” value (exposure cycle 25) was 0.6 ppm. Besides, the “Copper ion release from 1.0μ particles” value came out at 0.4 ppm (exposure cycle 30); 0.3 ppm (exposure cycle 35); 0.2 ppm (exposure cycle 40); 0.1 ppm (exposure cycle 45); 0.0 ppm (exposure cycle 50).
